Results published in ChEMBL document CHEMBL1150894, “Three new manzamine congeners from amphimedon sponge” (J Nat Prod, 1998).
Values after ≈ are worked out from the molar mass of the structure shown.

Columns and labels:
[1] = tested on: Micrococcus luteus; experiment: Antibacterial activity against Sarcina lutea; type: functional
[2] = tested on: L1210; experiment: Cytotoxicity against mouse L1210 cells; type: functional, cell-based
[3] = tested on: Corynebacterium xerosis; experiment: Antibacterial activity against Corynebacterium xerosis; type: functional

| SMILES | MIC [1] | IC50 [2] | MIC [3] |
| --- | --- | --- | --- |
| O[C@]12C=C(C3=NCCc4c3[nH]c3ccccc43)[C@@H]3CCN(CC/C=C\CCCC1)C[C@@]31CC/C=C\CCCCN[C@H]12 | 12.5 µg/mL (≈ 22.6 µM) | 0.5 µg/mL (≈ 0.904 µM) | 12.5 µg/mL (≈ 22.6 µM) |
| O[C@]12C=C(c3nccc4c3[nH]c3ccccc34)[C@@H]3CCN(CCCC/C=C\CC1)C[C@@]31C[C@@H]3/C=C\CCCCN3[C@H]12 [MANZAMINE A] | 2.3 µg/mL (≈ 4.19 µM) | 1.4 µg/mL (≈ 2.55 µM) | 5.7 µg/mL (≈ 10.4 µM) |
